Experimental data published in BigSolDB 2.1.

O=C1C=CC(=O)O1
solubility (mole fraction)
Settings	278.15 K	283.15 K	288.15 K	293.15 K	298.15 K	303.15 K	308.15 K	313.15 K	318.15 K	323.15 K
in DMF	0.0297	0.0372	0.0466	0.0584	0.0707	0.087	0.104	0.125	0.15	0.176
in acetic acid	0.0156	0.0216	0.0281	0.0369	0.0472	0.0605	0.0767	0.0962	0.119	0.146
in acetone	0.00999	0.0136	0.0191	0.0264	0.0336	0.0453	0.0599	0.0768	0.0977	0.124
in acetonitrile	0.012	0.0173	0.0232	0.0307	0.0408	0.0526	0.0682	0.0873	0.111	0.139
in ethyl acetate	0.00906	0.0125	0.017	0.0219	0.0303	0.0398	0.0518	0.0665	0.0857	0.107
in isopropanol	0.00617	0.00942	0.013	0.0178	0.0241	0.0321	0.043	0.0552	0.0712	0.0909
in methanol	0.0211	0.0282	0.0359	0.0465	0.0582	0.0719	0.0886	0.109	0.132	0.159
in n-butanol	0.00359	0.00539	0.00796	0.0116	0.0168	0.0236	0.033	0.0455	0.0618	0.0828
